Laboratory results taken from patent US11060715B2, “Ex vivo proliferation of epithelial cells” (PROPAGENIX INC., priority 2015, dated 2021).
Structures can show the parent of a compound that is named as a salt.

Legend:
[1] = system: late passage prostate epithelial cells; assay: Proliferation of late passage prostate epithelial cells in KSFM plus compounds, 5 days; assay type: cell-based, human; conditions: for total cell number after 5 days: KSFM plus individual compound alone, 1 μM and 0.2 μM (FIG. 16)
Procedure: Stocks of certain chemicals used in the study were prepared by dissolving in DMSO to 10 mM. The chemical stocks were added to culture media to desired final concentrations, as described in Examples 2 to 5 and shown in FIGS. 1 to 17, from the time when cell culture was initiated.
In a control experiment with no added compound, there was minimum increase of cell numbers after 5 days.
In control experiment with no inhibitor added to KSFM, there was minimum increase of cell numbers after 5 days. […] As described above, these include Rho kinase inhibitors (i.e., Rho-associated protein kinase inhibitors) such as Y-27632, SR 3677, GSK 429286 and Thiazovivin; PAK1 inhibitor IPA-3; and myosin II inhibitor (i.e., non-muscle myosin II (NM II) inhibitor) Blebbistatin.

keratinocytes = assay: Expansion of keratinocytes in KSFM supplemented with combinations of components; assay type: cell-based, human; conditions: for cell growth rate: KSFM with EGF, isoproterenol, A 83-01 and rHA
Procedure: In another experiment, keratinocytes were cultured in KSFM supplemented with various combinations of components.
In another experiment, keratinocytes were cultured in the presence of increasing doses of ROCK inhibitor (Y-27632) or Myosin II ATPase inhibitor (blebbistatin), in KSFM supplemented with EGF (0.5 ng/mL), isoproterenol (3 μM), A 83-01 (1 μM), and recombinant human serum albumin (expressed in rice; 100 μg/mL).
In another experiment, keratinocytes were cultured in the presence of increasing doses (between 10 nM to 2 μM) of retinoic acid receptors (RAR) antagonist BMS-453 or retinoic acid receptors (RAR) antagonist BMS-195614, in KSFM supplemented with EGF (0.5 ng/mL), isoproterenol (3 μM), A 83-01 (1 μM), and recombinant human serum albumin (expressed in rice; 100 μg/mL).

[2] = system: human telomerase reverse transcriptase (hTERT) gene; assay: hTERT expression by quantitative real-time PCR in bronchial epithelial cells; assay type: cell-based; conditions: KSFM
Procedure: (§1) Total RNA was prepared using TRIzol® Plus RNA Purification Kit (Life Technologies, 12183-555) and PureLink® RNA Mini Kit (Life Technologies, 12183018A), following the manufacturer's instructions. One hundred nanogram total RNA was used for the determination of human telomerase reverse transcriptase (hTERT) expression using the TaqMan® RNA-to-CT™ 1-Step Kit (Life Technologies, 4392938), following the protocol provided by the supplier. hTERT primers and Taqman® probe used were as follows: forward primer, 5′-[…]-3′ (SEQ ID NO:7), reverse primer, 5′-[…]-3′ (SEQ ID NO:8) and Taqman® probe, 5′-[…]-3′ (SEQ ID NO:9).
(§2) In this example, hTERT expression in epithelial cells was assessed in the presence of an ALK5 inhibitor, a Rho kinase inhibitor (i.e., a Rho-associated protein kinase inhibitor), or both. Expression of hTERT gene was examined by quantitative real-time PCR in bronchial epithelial cells and prostate epithelial cells. The cells were treated with an ALK5 inhibitor, A83-01, or a Rho kinase inhibitor (i.e., a Rho-associated protein kinase inhibitor), Y-27632, or both inhibitors, at different passages in KSFM.

[3] = system: bronchial epithelial cells; assay: Growth (population doublings) of bronchial epithelial cells in culture; assay type: cell-based, human; conditions: added to KSFM
Procedure: (§3) Epithelial cells (prostate epithelial cells and bronchial epithelial cells) were plated at 3,000-10,000 viable cells/cm^2 in tissue culture vessels, using culture medium as indicated in Examples 2 to 5 and FIGS. 1 to 17, and incubated at 37° C. with 5% CO2. The medium was changed every 2 or 3 days. Cells were sub-cultured using standard trypsinization method when they were about 70-90% confluent. Total cell number was determined using the Countess II Automated Cell Counter (Life Technologies, AMQAX1000) following manufacturer's instructions.
(§4) A formula used for the calculation of population doublings (PD) is presented in Equation A: n=3.32*(log Y−log I)+X Equation A where n=the final PD number at end of a given subculture, Y=the cell yield at the time of harvesting, I=the cell number used as inoculum to begin that subculture, and X=the doubling level of the inoculum used to initiate the subculture being quantitated.
(§5) Prostate and bronchial epithelial cells were grown in KSFM in the presence of Rho kinase inhibitor (i.e., Rho-associated protein kinase inhibitor) Y-27632.
Similar to the experiment above, bronchial epithelial cells were grown in KSFM in the presence of media alone, ALK5 inhibitor A83-01, Rho kinase inhibitor (i.e., Rho-associated protein kinase inhibitor) Y-27632, or both (with or without collagen).

[4] = system: prostate epithelial cells; assay: Growth (population doublings) of prostate epithelial cells in culture; assay type: cell-based, human; conditions: added to KSFM
Procedure: as §3, §4, §5
To examine the effects of additional in vitro and/or ex vivo growth conditions, prostate epithelial cells were grown in KSFM or PrEGM in the presence of media alone, ALK5 inhibitor A83-01, Rho kinase inhibitor (i.e., Rho-associated protein kinase inhibitor) Y-27632, or both (with or without collagen).

[5] = system: human telomerase reverse transcriptase (hTERT) gene; assay: hTERT expression by quantitative real-time PCR in prostate epithelial cells; assay type: cell-based; conditions: KSFM
Procedure: as §1, §2
As shown in FIG. 6A and FIG. 6B, prostate epithelial cells at early passage (p2) expressed low level of hTERT, which quickly diminished at passage 3 and became non-detectible by passage 5.

[6] = used together with A83-01 in KSFM, 5 μM, 1 μM and 0.2 μM (FIG. 17)
[7] = increasing doses (between 10 nM to 2 μM)

Structure (SMILES)	total cell number after 5 days ([1]; 5 μM)	cell proliferation after 5 days [1, 6]	further results
Cc1ccc2c(c1)C(=O)C1(O)CCN(c3ccccc3)C1=N2 (racemic) [Blebbistatin, (±)-1,2,3,3a-Tetrahydro-3a-hydroxy-6-methyl-1-phenyl-4H-pyrrolo[2,3-b]quinolin-4-one]	did not increase proliferation	synergistically increased	cell growth rate (keratinocytes; increasing doses): No significant increase of cell growth rate
Cc1cccc(-c2nn(C(=S)Nc3ccccc3)cc2-c2ccnc3ccccc23)n1 [A83-01, 3-(6-Methyl-2-pyridinyl)-N-phenyl-4-(4-quinolinyl)-1H-pyrazole-1-carbothioamide]	pronounced increase of total cell number		hTERT expression ([2]; early passage (p3)): robustly induced; hTERT expression ([2]; late passage (p6)): sustained measurable hTERT expression; cell proliferation after 5 days ([1]; KSFM plus compound alone (FIG. 17)): significantly increased; total population doublings [3]: also increased the total population doublings; total population doublings [4]: also increased the total population doublings; hTERT expression ([5]; early passage (p2)): quickly induced; hTERT expression ([5]; late passage (p5)): sustained measurable hTERT expression
CC1(C)CC=C(c2ccccc2)c2cc(/C=C/c3ccc(C(=O)O)cc3)ccc21 [BMS-453]			proliferation of keratinocytes (keratinocytes; 100 nM, with A83-01, EGF, isoproterenol and rHA): further increased the proliferation of keratinocytes; cell growth rate (keratinocytes; [7]): further enhance cell growth rate at sub-micromolar doses
CC1(C)CC=C(c2cnc3ccccc3c2)c2cc(C(=O)Nc3ccc(C(=O)O)cc3)ccc21 [BMS-195614]			cell growth rate (keratinocytes; [7]): further enhance cell growth rate at sub-micromolar doses
CC1=C(C(=O)Nc2cc3cn[nH]c3cc2F)C(c2ccc(C(F)(F)F)cc2)CC(=O)N1 (stereo not shown) [GSK 429286, 4-[4-(Trifluoromethyl)phenyl]-N-(6-Fluoro-1H-indazol-5-yl)-2-methyl-6-oxo-1,4,5,6-tetrahydro-3-pyridinecarboxamide]	slight increase of total cell numbers	synergistically increased	
O=C(NC1CCOCC1)c1ccc(-c2cc(-c3c[nH]nc3-c3ccccn3)ccn2)cc1 [GW 788388, 4-[4-[3-(2-Pyridinyl)-1H-pyrazol-4-yl]-2-pyridinyl]-N-(tetrahydro-2H-pyran-4-yl)-benzamide]	pronounced increase of total cell number	little extra increase	
Oc1ccc2ccccc2c1SSc1c(O)ccc2ccccc12 [IPA-3, 1,1′-Dithiodi-2-naphthtol]	did not increase proliferation	synergistically increased	
Cc1cccc(-c2n[nH]cc2-c2ccc3ncccc3n2)n1 [RepSox, 2-(3-(6-Methylpyridine-2-yl)-1H-pyrazol-4-yl)-1,5-naphthyridine]	pronounced increase of total cell number	little extra increase	
NC(=O)c1ccc(-c2nc(-c3ccc4c(c3)OCO4)c(-c3ccccn3)[nH]2)cc1 [SB 431542, 4-[4-(1,3-benzodioxol-5-yl)-5-(2-pyridinyl)-1H-imidazol-2-yl]benzamide]	pronounced increase of total cell number	little extra increase	
CN(C)CCOc1cc(-c2cn[nH]c2)ccc1NC(=O)C1COc2ccccc2O1 (stereo not shown) [SR 3677, N-[2-[2-(Dimethylamino)ethoxy]-4-(1H-pyrazol-4-yl)phenyl-2,3-dihydro-1,4-benzodioxin-2-carboxamidedihydrochloride]	slight increase of total cell numbers	synergistically increased	
O=C(NCc1ccccc1)c1csc(Nc2ccncn2)n1 [Thiazovivin, N-Benzyl-[2-(pyrimidin-4-yl)amino]thiazole-4-carboxamide]	slight increase of total cell numbers	synergistically increased	
